Data set [1] relates to Mz-ChA-1 cholangiocarcinoma cells. The experiment in a line: Annexin-V-FITC fluorescence microscopy, semiquantitative. It counts as cell-based, human. Particulars: Mz-ChA-1, 24 h, β-caryophyllene 50 µM, doxorubicin 20 µM. The procedure: (§1) Apoptosis extent was evaluated by Annexin-V staining (Annexin V Apoptosis detection kit, Santa Cruz Biotechnology, DBA, Milan, Italy), which is known to specifically binds phosphatidylserine, a […] which is normally embedded in the inner leaflet of plasma membrane and externalized during apoptosis, as a result of the membrane changes. Therefore, apoptotic cells can be directly detected through their staining with the fluorochrome-conjugated Annexin V. The analysis was performed by both fluorescence microscopy and flow cytometry in order to both visualize the event and to achieve a quick and accurate quantification of apoptotic cells.

Data set [2] concerns glutathione in Mz-ChA-1 cholangiocarcinoma cells. The experiment in a line: HPLC determination of intracellular GSH and GSSG. Type of data set: cell-based, human. The procedure:
Intracellular levels of reduced (GSH) and oxidized (GSSG) glutathione were measured by HPLC-UV, as previously described. Briefly, after treatments with β-caryophyllene (50 µM) and doxorubicin (20 µM), the harvested cells (1 × 10^6 cells) were suspended in 10% ice-cold TCA and centrifuged for 15 min at 9000× g, then supernatant was collected and GSH and GSSG measured by HPLC with UV detection at 215 nm. The separation was achieved using a InfinityLab poroshell 120 EC-C18 column (3 × 150 mm, 2.7 μm) at a flow rate of 0.8 mL/min, using the following elution gradient: 0–3 min 100% A + 0% B, 3–10 min from 100% A to 100% B. The mobile phase A contained 0.1% trifluoroacetic acid in water, whereas mobile phase B was 0.1% trifluoroacetic acid in water/acetonitrile (93:7). Under our chromatographic conditions, retention times of GSH and GSSG were 2.58 min and 7.01 min, respectively.

In data set [3] the test system is phospho(Tyr705)-STAT3 in H69 cholangiocytes. Briefly: Western blotting of phospho(Tyr705)-STAT3. It counts as cell-based. The settings on record: for enhancement of basal phospho(Tyr705)-STAT3 expression: doxorubicin 20 µM. On the technique in general: Immunoblotting shows a protein as a band on a membrane.
Protocol: To perform the analysis, the cells were seeded in 6-well plates, then subjected to the treatment with β-caryophyllene (50 µM) and doxorubicin (20 µM), alone and in combination, for the required time exposure, then harvested by centrifugation and washed in PBS. A lysis buffer, containing SDS (2% w/w), Tris-hydrochloride (20 mM; pH 7.4), urea (2 M), glycerol (10% w/w), sodium orthovanadate (2 mM), DTT (10 mM) and a protease inhibitors cocktail (1:100 dilution) was used to achieve the cell protein separation. The separated proteins were resolved by SDS-PAGE 10% TGX FastCast™ Acrylamide gel (BioRad, Segrate, Italy) and transferred on PVDF membranes (BioRad, Segrate, Italy) by using a Trans-Blot® Turbo™ Transfer System (BioRad, Segrate, Italy). The membranes were blocked with a 0.2% w/v I-block (Thermo Fisher Scientific, Rodano, Italy) in Tris-buffered saline containing 0.05% Tween-20 (TBS-T), then stained with the desired primary antibodies. […] After rinsing three times in TBS-T to remove unbound primary antibody, the membranes were incubated for an additional hour with the appropriate horseradish peroxidase- or alkaline phosphatase-conjugated secondary antibody (Jackson ImmunoResearch, Pero, Italy). […] Each experiment was performed at least in three replicates.
Data set [4] concerns H69 noncancerous cholangiocytes. The experiment in a line: Annexin-V-Cy3/CFDA flow cytometry (apoptotic and viable cells). Type of data set: cell-based. The settings on record: for inhibition of viable cells (CF fluorescence): H69, 2 h and 24 h, maximum. The procedure: as §1
For flow cytometry analysis, the cells (1 × 10^6 cells) were grown in 6-well plates, treated with β-caryophyllene (50 µM) and doxorubicin (20 µM), alone and in combination for the required time exposure, then collected by trypsinization and resuspended in PBS in the presence of the fluorochrome Annexin-V-Cy3 (4 μg/mL in cell suspension). In order to detect viable cells, the nonfluorescent probe carboxyfluorescein diacetate (CFDA; 2 μg/mL in cell suspension), hydrolyzed in living cells by esterases to its fluorescent carboxyfluorescein metabolite (CF), was included too. For each sample, the mean fluorescence of Annexin-V-Cy3 (excitation/emission at 543/570 nm, respectively) and CF (excitation/emission at 492/514 nm, respectively) in 50,000 cells was measured using a BD Accuri^TM C6 flow cytometer, FL-2 and FL-1 channels respectively (BD Biosciences, Milan, Italy). Although standard flow cytometry apoptosis assays use Annexin V-FITC, we chosen the conjugate with Cy3 in order to avoid the overlapping in the excitation wavelength of annexin V-FITC and CF, which could interfere with the analysis. Cells undergoing apoptosis were also sorted by their typical forward- and side scatter (FSC-SSC) pattern, i.e., increased SSC and decreased FSC, respect to the viable cells. Multiparameter analysis and gating of forward and side scatter as well as fluorescence detection were performed using a BD Accuri^TM C6 Software version 1.0.264.21 (BD Biosciences, Milan, Italy).

The test system of data set [5] is Mz-ChA-1 cholangiocarcinoma cells.
Protocol: To perform the assay, the cells were grown for 24 h into 96-well microplates (2 × 10^4 cells/well), then treated with the test substances and incubated according to the applied protocol schedule [26]. At the end of incubation, the cytotoxicity was measured by the 3-[4,5-dimethylthiazol-2-yl] -2,5-diphenyl tetrazolium bromide (MTT) assay, using an Epoch Microplate Spectrophotometer (BioTek, AHSI, Milan Italy). At least three biologic replicates, in which each concentration was tested in triplicate, were made. Comparing the number of viable cells in each treatment respect to the vehicle control allows to measure a cell viability reduction. The effect of the treatment was considered as cytotoxic when at least a 30% lowering of cell viability occurred [59].
In the single long-term schedule, confluence cells were exposed to the test substances for 24 h and 72 h (Figure S1), then the cytotoxicity was measured by the MTT assay. Under the metronomic treatment, the cells were subjected to a short and/or repeated exposure of 2 h to the test substances (Figure S2), as follow: 1) single treatment, the cells were treated for 2 h, then washed and incubated for 72 h; 2) two-repeated treatments, the cells were exposed to the test substances for 2 h, then washed and incubated for functional recovery for further 2 h. After recovering, the cells were further treated with the test substances for 2 h, washed and incubated for 72 h. Finally, the cytotoxicity was measured by the MTT assay as described above.
The type of interaction between β-caryophyllene and doxorubicin, i.e., synergy, additivity or antagonism, was evaluated by measuring three parameters: reversal ratio value (RR), combination index (CI) and isobolographic analysis (IB) [24].
RR represents the cytotoxicity enhancement ratio and allows to quantify the efficacy increase of a drug (A) in the presence of a chemosensitizing agent (B), by relating the IC50 of A alone (CA) and that of IC50 of its combination with B (CA+B).
CI gives a quantitative measure of the interaction and is calculated as follow: (CA,X/ICX,A) + (CB, X/ICX,B), in which CA,X and CB,X are the concentrations of A and B at the IC50 value of their combination, whereas ICX,A and ICX,B are the IC50 values of the substances alone. When the CI value was equal to, less or higher than 1, the interaction between test substances was evaluated as additivity, synergism and antagonism, respectively.
The isobolographic analysis, displaying the extent of the interaction between drug A and the potential chemosensitizer B, was obtained by a two-coordinate plot, wherein the IC50 concentrations of A and B were plotted on the x and y axes, corresponding to (CA, 0) and (C0, B), respectively. The substance concentrations used in the combination (CA+B) were placed in the same plot. A nonlinear regression analysis was carried out by GraphPad Prism™ 6.00 software, in order to connect the IC50 value of each drug alone and that of the combination, whereas the line connecting CA and CB represented an additive interaction. A synergism between A and B occurred when CA+B were located below the line, while the interaction was antagonistic when the values were above the line [60].
For data set [6], the system named is ROS in H69 noncancerous cholangiocytes. The experiment in a line: Intracellular ROS determination (DCFH-DA). It counts as cell-based. The settings on record: H69, 24 h, β-caryophyllene 50 µM, doxorubicin 20 µM. The procedure: To perform the assay, the cells, seeded in 6-well plates (1 × 10^6 cells/well), were treated with the tested substances (β-caryophyllene, 50 µM; doxorubicin, 20 µM) for the required time exposure, then the ROS levels were measured in the pellets by the 2,7-dichlorofluorescein diacetate assay (DCFH-DA), as previously reported. […] In each experiment, a vehicle control, corresponding to a basal ROS level, were included too. For all the treatments, the mean DCF fluorescence of 50,000 cells was determined by a BD Accuri^TM C6 Software version 1.0.264.21 (BD Biosciences, Milan, Italy).

The test system of data set [7] is H69 noncancerous cholangiocytes. The experiment in a line: Cell cycle analysis (PI flow cytometry). Type of data set: cell-based. Particulars: H69, 24 h. The procedure:
Analysis of cell cycle progression was performed by applying a one parameter flow cytometric method, in which cell cycle distribution was evaluated on the basis of DNA content. Briefly, after treatments, the harvested cells (about 1 × 10^6 cells) were fixed in ice cold 70% ethanol and stored for at least 2 h at 4 °C. Thereafter, the ethanol-suspended cells were separated by centrifugation, rinsed in PBS, then resuspended in a propidium iodide (PI) staining solution, containing 0.1% v/v Triton X-100, 10 μg/mL PI and 100 μg/mL DNase-free RNase A in PBS and stored at 4 °C in the dark for at least 30 min. For each sample, the mean fluorescence of PI (maximum excitation of PI bound to DNA at 536 nm; emission at 617 nm) in 50,000 cells was measured using a BD Accuri^TM C6 flow cytometer FL2 channel (BD Biosciences, Milan, Italy) and deconvolution of the DNA content frequency histograms, to estimate the proportions of cells in the respective phases of the cycle, was made by Modfit 4.1 software (Verity Software House, Topsham, ME, USA).
A general note: A flow cytometer gives signals particle by particle.

The structures appear in SMILES notation. Where a name gives a salt, the structure may show the parent alone. Read-outs that look alike come from different tables or passages of the source.

For `COc1cccc2c1C(=O)c1c(O)c3c(c(O)c1C2=O)C[C@@](O)(C(=O)CO)C[C@@H]3O[C@H]1C[C@H](N)[C@H](O)[C@H](C)O1` [Doxorubicin, doxorubicin hydrochloride], the “Annexin V Mz-ChA-1 (semiquantitative apoptosis score)” value in data set [1] is “+ (11%–30% = +)”. In addition, in data set [2] (Mz-ChA-1, 2 h), the “lowering of GSH/GSSG ratio” value is on record as 1.3 fold. Also, the “change in GSH” value in data set [2] (Mz-ChA-1, 2 h, doxorubicin 20 µM) was “not significantly decreased”. In addition, in data set [2] (Mz-ChA-1, 24 h), the “change in GSSG” value is “without changes in the GSSG amount” and the “lowering of GSH/GSSG ratio” value came to 4 fold. Besides, the “reduction of GSH” value in data set [2] (Mz-ChA-1, 24 h, doxorubicin 20 µM) is “at least 3 fold”. The “enhancement of basal phospho(Tyr705)-STAT3 expression” value in data set [3] (H69, 2 h) is listed as roughly 6 fold. Also, the “enhancement of basal phospho(Tyr705)-STAT3 expression” value in data set [3] (H69, 24 h) is on record as roughly 10 fold. In data set [4], the “inhibition of viable cells (CF fluorescence)” value is on record as no more than 1.4 fold. For the same compound, the “increase of apoptotic rate” value in data set [4] (H69, 24 h, doxorubicin 20 µM) is roughly 1.5 fold. Further, in data set [5], the “cytotoxicity increase produced by the double repeated exposure” value amounted to 10%. In data set [5] (Mz-ChA-1), the “IC50 lowering, double repeated 2 h metronomic vs 24 h protocol” value was roughly 2.4 fold; the “IC50 lowering, single 2 h metronomic vs 24 h protocol” value is “about 1.4 fold”; the “IC50 reduction, double short exposure vs single 2 h treatment” value came to 1.7 fold; the “anticancer power under metronomic conditions lower than after 72 h” value was 3- to 5 fold. Besides, the “potency increase, 72 h with respect to 24 h (IC50 comparison)” value in data set [5] (Mz-ChA-1) is “at least 7 fold”. Also, in data set [5] (Mz-ChA-1, 1 µM, 72 h), the “inhibition of cell viability” value is recorded as “about 20%”. Further, in data set [5] (Mz-ChA-1, 10 μM, 2 h exposure protocol), the “inhibition of cell viability” value is no less than 35%. In data set [5] (Mz-ChA-1, 10 µM, 24 h), the “inhibition of cell viability” value is “about 20%”. For the same compound, the “inhibition of cell viability” value in data set [5] (Mz-ChA-1, 10 µM, 72 h) is listed as “about 80%”. Besides, the “maximum inhibition of cell viability” value in data set [5] (Mz-ChA-1, 100 μM, both metronomic schedules) is recorded as 80%. Besides, the “maximum inhibition of cell viability” value in data set [5] (Mz-ChA-1, 200 µM, 24 h) is on record as “about 80%”. Besides, in data set [5] (Mz-ChA-1, concentrations lower than 10 μM, 2 h exposure protocol), the “cell viability reduction vs. control” value is reported as less than 20%. In data set [6], the “enhancement in ROS amount compared the control” value was “at least 3 fold”. In data set [7] (doxorubicin 20 µM), the “increase of cell accumulation in S-phase compared the control” value is recorded as roughly 1.8 fold and the “reduction of G0/G1 phase” value is reported as no less than 30 fold.
For `C=C1CC/C=C(\C)CC[C@@H]2[C@@H]1CC2(C)C` [β-Caryophyllene, β-caryophyllene], the “Annexin V Mz-ChA-1 (semiquantitative apoptosis score)” value in data set [1] is given as “+/- (6%–10% = +/−)”. Also, the “change in GSSG” value in data set [2] (Mz-ChA-1, 24 h) was “without changes in GSSG”. Also, the “increase of GSH levels vs. control” value in data set [2] (Mz-ChA-1, 24 h, β-caryophyllene 50 µM) was “about 2.5 fold”. Besides, in data set [2] (Mz-ChA-1, β-caryophyllene alone), the “increase of GSH/GSSG ratio” value is reported as “about 2 fold”. Also, the “effect on phospho(Tyr705)-STAT3 expression” value in data set [3] (H69, β-caryophyllene 50 µM alone) was “did not affected the protein expression”. Besides, the “inhibition of viable cells (CF fluorescence)” value in data set [4] is on record as “about 1.2 fold”. Further, the “lowering of basal apoptosis (annexin-V-Cy3)” value in data set [4] (H69, both time exposures, β-caryophyllene 50 µM) is recorded as 1.2 fold. Moreover, the “fold more toxic after 72 h with respect to the other schedules (IC50 comparison)” value in data set [5] (Mz-ChA-1) was 1.4- to 2 fold. For the same compound, the “reduction of cell viability” value in data set [5] (Mz-ChA-1, 50 μM) is recorded as “lower than 20%”. The “inhibition of cell viability vs. control” value in data set [5] (Mz-ChA-1, concentrations higher than 50 μM, 24 h and 72 h) is given as “about 20%”. Further, in data set [5] (Mz-ChA-1, metronomic schedule), the “nontoxic up to (concentration)” value was “up to 125 μM”. Also, the “enhancement in ROS amount compared the control” value in data set [6] is reported as 1.3 fold. The “reduction of G2/M phase vs. control” value in data set [7] (β-caryophyllene 50 µM) is recorded as “about 1.4 fold”.

The values above are taken from paper PMC7226839, “Modulation of STAT3 Signaling, Cell Redox Defenses and Cell Cycle Checkpoints by β-Caryophyllene in Cholangiocarcinoma Cells: Possible Mechanisms Accounting for Doxorubicin Chemosensitization and Chemoprevention” (Cells, 2020).
